The test system of one assay is SKCO1 cells. The experiment in a line: Anchorage-independent growth (soft agar) assay for colony formation with or without gefitinib. Format: cell-based. To be noted: PRMT1-overexpressing and vector control cells. The text has this: (§1) FIGS. 1A-F. PRMT1-mediated cell proliferation and colony formation are EGFR signaling dependent. FIG. 1A. Cell proliferation assay of SKCO1 (left) and GEO (right) cells exogenously expressing PRMT1, PRMT1 shRNA, and control vector. In the top graphs, the top lines represent PRMT1 and the bottom lines represent Vector. In the bottom graphs, the top lines represent Vector and the bottom lines represent PRMT1 shRNA. P<0.05, t-test. FIG. 1B. Soft agar assay of SKCO1 cells exogenously expressing PRMT1, PRMT1 shRNA and control vector. Representative images from the anchorage-independent growth assay are shown above. *P<0.05, **P<0.005, t-test. FIG. 1C. Cell proliferation assay of SKCO1 (top) and GEO (bottom) cells expressing PRMT1 or vector control with or without gefitinib treatment. In both graphs, the top solid lines represent PRMT1 and the bottom solid lines represent Vector. In the top graph, the top dashed line represents PRMT1+gefitinib and the bottom dashed line represents Vector+gefitinib. P<0.05, t-test. FIG. 1D. […] All quantitative data were generated from a minimum of three replicates. Data are expressed as mean±s.d.
The base layer of cell growth matrix containing DMEM/F12 medium, 10% FBS, and 0.5% agar was paved in 6-well plates (1.5 ml per well). […] Colonies with a diameter larger than 0.5 mm were counted.

A further assay deals with SKCO1 and GEO cells. Put plainly: Cell proliferation assay with or without gefitinib. Format: cell-based. The note with it: PRMT1-overexpressing and vector control cells.
From the text: as §1, with “1D. Soft agar assay of SKCO1 exogenously expressing PRMT1 and control vector with or without gefitinib treatment. **P<0.005, t-test. FIG. 1E.” for “1D.”
Cells were then trypsinized and cell numbers counted on a daily basis.

For the compound `COc1cc2ncnc(Nc3ccc(F)c(Cl)c3)c2cc1OCCCN1CCOCC1` [gefitinib], in the assay on SKCO1 cells, the colony formation entry is “significantly inhibited”. Moreover, the cell proliferation entry with SKCO1 and GEO cells is given as “significantly inhibited”.

The values are drawn from US11452775B2, “Detection of arginine methylation of EGFR for prediction of resistance to therapy” (Board of Regents, The University of Texas System, priority 2013, dated 2022).
